{"source": "patent US8653143B2", "about": "“Use of panduratin derivative or Boesenbergia pandurata extract” (Newtree Co., Ltd., priority 2008, dated 2014)", "format_in_all_cases": "in vivo, C57BL/6 mice", "key": {"[1]": {"tested_on": "mice in which obesity is induced with a high-fat diet", "assay": "Body fat (abdominal, perirenal, epididymal) in high-fat diet obese mice treated with panduratin derivatives", "conditions": "administration for 8 weeks, same manner as panduratin A (50 mg/kg)", "procedure": "(§1) 3-week-old C57BL/6 mice were accustomed for a week, and a high-fat diet (Product # D12492, Research Diet Inc., New Brunswick, N.J., USA) was provided for 6 weeks to induce obesity. Then, the mice were randomly divided into 3 groups, 12 per each group. For the test group, panduratin A suspended in 0.25% carboxymethyl cellulose was administered once a day at regular hours for 8 weeks, with an administration dose of 50 mg/kg body weight. For comparison, 0.25% carboxymethyl cellulose only (control) of the same amount as that for the test group or sibutramine suspended in 0.25% carboxymethyl cellulose (5 mg/kg body weight) was orally administered. After administration for 8 weeks, the mice were fasted for at least 12 hours. After cutting open the abdomen, perirenal fat and epididymal fat were taken out, washed with physiological saline, dried, and then weighed.\n(§2) The effect of isopanduratin A prepared in Example 3 on body weight and body fat decrease was investigated in the same manner as in Examples 5 and 6. After administration for 8 weeks, there was no difference between the test group and other groups in food intake.\n(§3) The effect of 4-hydroxypanduratin A prepared in Example 4 on body weight and body fat decrease was investigated in the same manner as in Examples 5 and 6. After administration for 8 weeks, there was no difference between the 4-hydroxypanduratin-administered test group and other groups in food intake."}, "[2]": {"tested_on": "mice in which obesity is induced with a high-fat diet", "assay": "Body weight and food intake of high-fat diet obese mice treated with panduratin derivatives", "conditions": "for food intake, test group versus other groups: high-fat diet obese C57BL/6 mice; for body weight increase after 8 weeks: high-fat diet control about 32%", "from_the_text": "as §1, with “Mice in which obesity is induced with a high-fat diet were selected as a model to investigate the obesity-relieving effect of panduratin A prepared in Example 2. 3-week-old” for “3-week-old”, “Then, food intake and body weight of” for “After administration for 8 weeks,”, “measured every week,” for “fasted”, “8 weeks.” for “at least 12 hours. After cutting open the abdomen, perirenal fat and epididymal fat were taken out, washed with physiological saline, dried, and then weighed.”\nas §2, §3"}, "[3]": {"tested_on": "mice in which obesity is induced with a high-fat diet", "assay": "Serum total cholesterol, triglyceride, total lipid and leptin in high-fat diet obese mice", "conditions": "sibutramine 5 mg/kg orally for 8 weeks", "procedure": "as §1, with “blood was” for “perirenal fat and epididymal fat were”, “from the heart. The blood was centrifuged at 2,800 rpm at 4° C. for 30 minutes to separate the serum. The separated serum was stored at −70° C.” for “out, washed with physiological saline, dried, and then weighed.”\nTotal cholesterol level in the serum was determined by measuring absorbance at 500 nm using a standard enzyme assay kit. Serum triglyceride level was determined by measuring absorbance at 546 nm using a glycerol phosphate oxidase assay kit. Serum total lipid level was determined by measuring absorbance at 540 nm by the Frings method. Serum leptin level was determined by radioimmunoassay (RIA) using a mouse leptin RIA kit (Linco Research, Inc. USA)."}, "[4]": {"tested_on": "mice in which obesity is induced with a high-fat diet", "assay": "Body weight and food intake of high-fat diet obese mice treated with Boesenbergia pandurata extract", "conditions": "sibutramine 5 mg/kg orally for 8 weeks; high-fat diet control about 33%", "from_the_text": "Mice in which obesity is induced with a high-fat diet were selected as a model to investigate the obesity-relieving effect of the Boesenbergia pandurata extract prepared in Example 1. 4-week-old C57BL/6 mice were accustomed for a week, and a high-fat diet (Product # D12492, Research Diet Inc., New Brunswick, N.J., USA) was provided for 6 weeks to induce obesity. Then, the mice were randomly divided into 3 groups, 8 per each group. For the test group, Boesenbergia pandurata extract suspended in 0.25% carboxymethyl cellulose was administered once a day at regular hours for 8 weeks, with an administration dose of 200 mg/kg body weight. For comparison, 0.25% carboxymethyl cellulose only (control) of the same amount as that for the test group or sibutramine suspended in 0.25% carboxymethyl cellulose (5 mg/kg body weight) was orally administered. Then, food intake and body weight of the mice were measured every week, for 8 weeks."}, "[5]": {"conditions": "50 mg/kg body weight once a day for 8 weeks"}}}
{"smiles": "CC(C)=CC[C@@H]1C(C)=CC[C@@H](c2ccccc2)[C@@H]1C(=O)c1c(O)cc(O)cc1O", "note": "[4-hydroxypanduratin A]", "values": [{"measurement": "decrease of epididymal fat weight as compared to the high-fat diet control group", "setting": "[1]", "value": 46, "unit": "%"}, {"measurement": "decrease of perirenal fat weight as compared to the high-fat diet control group", "setting": "[1]", "value": 33, "unit": "%"}, {"measurement": "food intake, test group versus other groups", "setting": "[2]; [5]", "value": "no difference"}, {"measurement": "body weight increase after 8 weeks", "setting": "[2]; [5]", "value": "~13", "unit": "%"}]}
{"smiles": "COc1cc(O)cc(O)c1C(=O)[C@@H]1[C@H](CC=C(C)C)C(C)=CC[C@H]1c1ccccc1", "note": "[isopanduratin A, (4,6-dihydroxy-2-methoxyphenyl)[3-methyl-2-(3-methylbut-2-enyl)-6-phenylcyclohex-3-enyl]methanone]", "values": [{"measurement": "decrease of epididymal fat weight as compared to the high-fat diet control group", "setting": "[1]", "value": 32, "unit": "%"}, {"measurement": "decrease of perirenal fat weight as compared to the high-fat diet control group", "setting": "[1]", "value": 25, "unit": "%"}, {"measurement": "food intake, test group versus other groups", "setting": "[2]; [5]", "value": "no difference"}, {"measurement": "body weight increase after 8 weeks", "setting": "[2]; [5]", "value": "~17", "unit": "%"}]}
{"smiles": "CC(C)CC(N(C)C)C1(c2ccc(Cl)cc2)CCC1", "note": "(stereo not shown) [sibutramine]", "values": [{"measurement": "body weight increase after 8 weeks", "setting": "[2]; sibutramine 5 mg/kg body weight orally for 8 weeks", "value": "about 20%"}, {"measurement": "total cholesterol level in the serum", "setting": "[3]; control 140.73±16.47", "value": "122.4 ± 22.6", "unit": "mg/dL"}, {"measurement": "serum triglyceride level", "setting": "[3]; control 154.36±27.02", "value": "150.2 ± 20.19", "unit": "mg/dL"}, {"measurement": "total lipid level in the serum", "setting": "[3]; control 555.18±80.86", "value": "493.2 ± 111.9", "unit": "mg/dL"}, {"measurement": "body weight increase after 8 weeks", "setting": "[4]", "value": "about 27%"}]}
